Reference: PMC9395504 (Investigational New Drugs, 2022)
“Also recorded” adds a separate entry of the source. Where two headings read alike, the source gives them in different places. Marks after values point to notes of the source that are not given here.

Legend:
p53 pathway = settings: cited from earlier work
[1] = Safety: adverse events by NCI-CTCAE v4.0, phase 1 study Part 1; assay type: in vivo, human
Method: We defined the dose-limiting toxicity (DLT) period as the first 28 days of each dose-escalation cohort’s treatment cycle (DLT window). […] Non-hematologic DLTs included grade ≥3 nausea, vomiting, or diarrhea enduring >48 hours despite standard medical management, grade 3 fatigue persisting >7 days or grade 4 fatigue, any grade ≥3 metabolic laboratory abnormalities that are not controlled within 48 hours by standard medical management.

serum MIC-1 protein = settings: single-agent AMG 232, cited from earlier work
[2] = system: TP53-WT patient-derived melanoma xenografts; settings: 50 mg/kg, alone or combined with dabrafenib and trametinib; cited from earlier work
[3] = system: TP53-WT melanoma cell lines; design: method as in PMID 24810962; settings: combined with inhibitors of PI3K or MAPK signaling pathway; cited from earlier work
[4] = Plasma pharmacokinetics of AMG 232 at steady state (LC-MS/MS, noncompartmental); assay type: in vivo, human; settings: for AUC(0-t): read-out: AUC24hr
Text: The following PK parameters were estimated: maximum observed plasma concentration (Cmax), time to reach Cmax (tmax), area-under-the-plasma concentration-time curve (AUC), terminal phase half-life (t1/2,z), and apparent total body clearance (CL/F). We performed noncompartmental analyses for PK parameter estimation using Phoenix® WinNonlin® version 6.4 or later software (Certara™, Princeton, NJ). […] We prepared descriptive statistics, tables, and graphs using Phoenix® WinNonlin® and Prism version 9.1.1 (GraphPad Software, San Diego, CA).

[5] = system: TP53-WT cancer xenograft models; settings: daily oral administration; cited from earlier work
[6] = All patients, N=31, attributed to AMG 232 only
[7] = All patients, N=31, attributed to any drug
[8] = human, plasma, oral, 120 mg, Cycle 1 Day 7, AMG 232 monotherapy, Arm 2, 120 mg, geometric mean (CV%)
[9] = human, plasma, oral, 120 mg, Cycle 2 Day 7, co-administered with T + D, Arm 1, 120 mg, geometric mean (CV%)
[10] = human, plasma, oral, 120 mg, Cycle 2 Day 7, co-administered with T, Arm 2, 120 mg, geometric mean (CV%)
[11] = human, plasma, oral, 180 mg, Cycle 1 Day 7, AMG 232 monotherapy, Arm 1, 180 mg, geometric mean (CV%)
[12] = human, plasma, oral, 180 mg, Cycle 2 Day 7, co-administered with T + D, Arm 1, 180 mg, geometric mean (CV%)
[13] = human, plasma, oral, 240 mg, Cycle 1 Day 7, AMG 232 monotherapy, Arm 2, 240 mg, geometric mean (CV%)
[14] = human, plasma, oral, 240 mg, Cycle 2 Day 7, co-administered with T, Arm 2, 240 mg, geometric mean, n = 2

CC(C)[C@@H](CS(=O)(=O)C(C)C)N1C(=O)[C@@](C)(CC(=O)O)C[C@H](c2cccc(Cl)c2)[C@H]1c1ccc(Cl)cc1 [AMG 232]
doses with more consistent and pronounced effect on the p53 pathway (p53 pathway): 25 to 100 mg/kg | lowest dose affecting the p53 pathway (upregulation of p21 and MIC-1) (p53 pathway; doses as low as): 5 mg/kg | Share of treatment-emergent AEs attributable to AMG 232 ([1]; 240 of 614 AEs, in 30 subjects): 39% | AEs Grade 1 ([1]; All patients, N=31): 31 (100) N (%) | AEs Grade 2 ([1]; All patients, N=31): 30 (97) N (%) | AEs Grade 3 ([1]; All patients, N=31): 25 (81) N (%) | AEs Grade 4 ([1]; All patients, N=31): 2 (6) N (%) | AEs leading to AMG 232 d/c ([1]; All patients, N=31): 7 (23) N (%) | AEs leading to dabraf d/c ([1]; All patients, N=31): 2 (6) N (%) | Serious AE Adrenal insufficiency ([1]; All patients, N=31): 2 (6) N (%) | Serious AE Anemia ([1]; All patients, N=31): 1 (3) N (%) | Serious AE Cellulitis ([1]; All patients, N=31): 2 (6) N (%) | Serious AE Dehydration ([1]; All patients, N=31): 3 (10) N (%) | Serious AE Diarrhea ([1]; All patients, N=31): 4 (13) N (%) | Serious AE Fatigue ([1]; All patients, N=31): 1 (3) N (%) | Serious AE Hypotension ([1]; All patients, N=31): 1 (3) N (%) | Serious AE Nausea ([1]; All patients, N=31): 5 (16) N (%) | Serious AE Peripheral Edema ([1]; All patients, N=31): 1 (3) N (%) | Serious AE Pulmonary embolism ([1]; All patients, N=31): 5 (16) N (%) | Serious AE Pyrexia ([1]; All patients, N=31): 5 (16) N (%) | Serious AE Seizure ([1]; All patients, N=31): 3 (10) N (%) | Serious AE Thrombocytopenia ([1]; All patients, N=31): 1 (3) N (%) | Serious AE Vomiting ([1]; All patients, N=31): 5 (16) N (%) | AE AST increased [1, 6]: 3 (10) N (%) | AE Abdominal pain [1, 6]: 5 (16) N (%) | AE Adrenal insufficiency [1, 6]: 0 N (%) | AE Anemia [1, 6]: 5 (16) N (%) | AE Cellulitis [1, 6]: 0 N (%) | AE Chills [1, 6]: 2 (6) N (%) | AE Cough [1, 6]: 2 (6) N (%) | AE Decreased appetite [1, 6]: 13 (42) N (%) | AE Dehydration [1, 6]: 1 (3) N (%) | AE Dermatitis acneiform [1, 6]: 3 (10) N (%) | AE Diarrhea [1, 6]: 24 (77) N (%) | AE Dizziness [1, 6]: 3 (10) N (%) | AE Dry mouth [1, 6]: 3 (10) N (%) | AE Dysgeusia [1, 6]: 4 (13) N (%) | AE Dyspepsia [1, 6]: 3 (10) N (%) | AE Fatigue [1, 6]: 23 (74) N (%) | AE Headache [1, 6]: 3 (10) N (%) | AE Hypertension [1, 6]: 2 (6) N (%) | AE Hypotension [1, 6]: 1 (3) N (%) | AE Lipase increased [1, 6]: 4 (13) N (%) | AE Malaise [1, 6]: 4 (13) N (%) | AE Nausea [1, 6]: 27 (87) N (%) | AE Neutropenia [1, 6]: 3 (10) N (%) | AE Peripheral Edema [1, 6]: 1 (3) N (%) | AE Pruritus [1, 6]: 0 N (%) | AE Pulmonary embolism [1, 6]: 2 (6) N (%) | AE Pyrexia [1, 6]: 2 (6) N (%) | AE Rash [1, 6]: 2 (6) N (%) | AE Seizure [1, 6]: 0 N (%) | AE Thrombocytopenia [1, 6]: 3 (10) N (%) | AE Vomiting [1, 6]: 21 (68) N (%) | AE AST increased [1, 7]: 6 (19) N (%) | AE Abdominal pain [1, 7]: 6 (19) N (%) | AE Adrenal insufficiency [1, 7]: 2 (6) N (%) | AE Anemia [1, 7]: 9 (29) N (%) | AE Cellulitis [1, 7]: 2 (6) N (%) | AE Chills [1, 7]: 8 (26) N (%) | AE Cough [1, 7]: 8 (26) N (%) | AE Decreased appetite [1, 7]: 16 (52) N (%) | AE Dehydration [1, 7]: 9 (29) N (%) | AE Dermatitis acneiform [1, 7]: 14 (45) N (%) | AE Diarrhea [1, 7]: 27 (87) N (%) | AE Dizziness [1, 7]: 5 (16) N (%) | AE Dry mouth [1, 7]: 5 (16) N (%) | AE Dysgeusia [1, 7]: 6 (19) N (%) | AE Dyspepsia [1, 7]: 4 (13) N (%) | AE Fatigue [1, 7]: 25 (81) N (%) | AE Headache [1, 7]: 15 (48) N (%) | AE Hypertension [1, 7]: 8 (26) N (%) | AE Hypotension [1, 7]: 8 (26) N (%) | AE Lipase increased [1, 7]: 5 (16) N (%) | AE Malaise [1, 7]: 4 (13) N (%) | AE Nausea [1, 7]: 28 (90) N (%) | AE Neutropenia [1, 7]: 5 (16) N (%) | AE Peripheral Edema [1, 7]: 13 (42) N (%) | AE Pruritus [1, 7]: 11 (35) N (%) | AE Pulmonary embolism [1, 7]: 5 (16) N (%) | AE Pyrexia [1, 7]: 11 (35) N (%) | AE Rash [1, 7]: 7 (23) N (%) | AE Seizure [1, 7]: 3 (10) N (%) | AE Thrombocytopenia [1, 7]: 7 (23) N (%) | AE Vomiting [1, 7]: 22 (71) N (%) | AMG 232-related AE abdominal pain, patients ([1]; all 31 patients): 16% | AMG 232-related AE anemia, patients ([1]; all 31 patients): 16% | AMG 232-related AE decreased appetite, patients ([1]; all 31 patients): 42% | AMG 232-related AE diarrhea, patients ([1]; all 31 patients): 77% | AMG 232-related AE dysgeusia, patients ([1]; all 31 patients): 13% | AMG 232-related AE fatigue, patients ([1]; all 31 patients): 74% | AMG 232-related AE increased lipase, patients ([1]; all 31 patients): 13% | AMG 232-related AE malaise, patients ([1]; all 31 patients): 13% | AMG 232-related AE nausea, patients ([1]; all 31 patients): 87% | AMG 232-related AE vomiting, patients ([1]; all 31 patients): 68% | Patients with serious AMG 232-related AEs ([1]; all 31 patients): 8 patients | Serious AMG 232-related AE diarrhea, patients ([1]; all 31 patients): 10% | Serious AMG 232-related AE nausea, patients ([1]; all 31 patients): 13% | Serious AMG 232-related AE pulmonary embolism, patients ([1]; all 31 patients): 6.5% | Serious AMG 232-related AE vomiting, patients ([1]; all 31 patients): 10% | SAE diarrhea, patients ([1]; all 31 patients, AMG 232 + T±D): 13% | SAE nausea, patients ([1]; all 31 patients, AMG 232 + T±D): 16% | SAE vomiting, patients ([1]; all 31 patients, AMG 232 + T±D): 16% | Treatment-emergent AE acneiform dermatitis, patients ([1]; all 31 patients, AMG 232 + T±D): 45% | Treatment-emergent AE decreased appetite, patients ([1]; all 31 patients, AMG 232 + T±D): 52% | Treatment-emergent AE diarrhea, patients ([1]; all 31 patients, AMG 232 + T±D): 87% | Treatment-emergent AE fatigue, patients ([1]; all 31 patients, AMG 232 + T±D): 81% | Treatment-emergent AE headache, patients ([1]; all 31 patients, AMG 232 + T±D): 48% | Treatment-emergent AE nausea, patients ([1]; all 31 patients, AMG 232 + T±D): 90% | Treatment-emergent AE peripheral edema, patients ([1]; all 31 patients, AMG 232 + T±D): 42% | Treatment-emergent AE pruritus, patients ([1]; all 31 patients, AMG 232 + T±D): 35.5% | Treatment-emergent AE pyrexia, patients ([1]; all 31 patients, AMG 232 + T±D): 35.5% | Treatment-emergent AE vomiting, patients ([1]; all 31 patients, AMG 232 + T±D): 71% | Patients with serious AEs (SAEs) ([1]; all 31 patients, AMG 232 + T±D, 24 patients): 77% | Patients withdrawn/discontinued from AMG 232 due to AEs ([1]; all 31 patients, seven patients): 23% | biologically effective AMG 232 dose in humans (serum MIC-1 protein; daily): at least 240 mg | daily dose at which significant increases in serum MIC-1 protein were seen (serum MIC-1 protein): higher than 240 mg | antitumor activity [2]: demonstrated antitumor activity | interaction in cell death [3]: synergy | AUC24hr ([4]; Cycle 1 Day 7, AMG 232 monotherapy, Arm 1, 120 mg, geometric mean (CV%)): 5140 (59.4%) n = 4 hr•ng/mL | AUC24hr ([4]; Cycle 2 Day 7, co-administered with T, Arm 2, 180 mg, geometric mean (CV%)): 9410 (107.0%)^a n = 5 hr•ng/mL | Effect of trametinib ± dabrafenib on AMG 232 PK exposures (Cmax, AUC24hr) ([4]; cycle 2 day 7 vs cycle 1 day 7, Wilcoxon matched-pairs signed-rank test p>0.05): not significant; also recorded: not significantly altered | Cmax ([4]; human, plasma, oral, 120 mg, Cycle 1 Day 7, AMG 232 monotherapy, Arm 1, 120 mg, geometric mean (CV%)): 491 ng/mL | Cmax [4, 8]: 914 ng/mL | AUC(0-t) [4, 8]: 9810 ng·h/mL | Cmax [4, 9]: 392 ng/mL | AUC(0-t) [4, 9]: 3140 ng·h/mL | Cmax [4, 10]: 630 ng/mL | AUC(0-t) [4, 10]: 6740 ng·h/mL | Cmax [4, 11]: 847 ng/mL | AUC(0-t) [4, 11]: 5890 ng·h/mL | Cmax ([4]; human, plasma, oral, 180 mg, Cycle 1 Day 7, AMG 232 monotherapy, Arm 2, 180 mg, geometric mean (CV%)): 1250 ng/mL | Cmax [4, 12]: 647 ng/mL | AUC(0-t) [4, 12]: 4750 ng·h/mL | Cmax ([4]; human, plasma, oral, 180 mg, Cycle 2 Day 7, co-administered with T, Arm 2, 180 mg, geometric mean (CV%)): 1010 ng/mL | Cmax [4, 13]: 3300 ng/mL | AUC(0-t) [4, 13]: 21100 ng·h/mL | Cmax [4, 14]: 953 ng/mL | AUC(0-t) [4, 14]: 6280 ng·h/mL | Tmax ([4]; human, plasma, oral, Cycle 2 Day 7, co-administered with T, Arm 2, 240 mg, median (min-max)): 1.5 h | effective doses, dose-dependent antitumor activity [5]: 9.1 to 78 mg/kg
